Laboratory results: ChEMBL document CHEMBL1147326, “Goniotriol from Goniothalamus giganteus” (J Nat Prod, 1989)
Values after ≈ are worked out from the molar mass of the structure shown.

Legend:
[1] = tested on: Agrobacterium tumefaciens; assay: Antitumor activity against Agrobacterium tumefaciens-induced crown gall tumors in potato tuber by potato disk test; assay type: functional
HT-29 = assay: Cytotoxicity against human HT-29 cells; assay type: functional; conditions: read-out: ED50 (the source's name)
MCF7 = assay: Cytotoxicity against human MCF7 cells; assay type: functional; conditions: read-out: ED50 (the source's name)
Artemia = assay: Toxicity in brine shrimp; assay type: organism-based; conditions: in vivo
A549 = assay: Cytotoxicity against human A549 cells; assay type: functional; conditions: read-out: ED50 (the source's name)

Structure (SMILES): O=C1C=C[C@H](O)[C@H]([C@H](O)[C@H](O)c2ccccc2)O1 [GONIOTRIOL]
- inhibition (INH) [1]: 38%
- EC50 (HT-29): > 10 µg/mL
- EC50 (MCF7): 5.9 µg/mL (≈ 23.6 µM)
- LC50 (Artemia): 269 ppm
- EC50 (A549): > 10 µg/mL
